Source: PMC8605905 (Oxidative Medicine and Cellular Longevity, 2021)
“Also recorded” adds a separate entry of the source.

Experiments:
[1] = test system: Acetylcholinesterase (AChE); assay: AChE activity in Aβ-GFP cells; assay type: cell-based; conditions: 5 μM, vs untreated cells
Procedure: Aβ-GFP or ∆K280 tauRD-DsRed SH-SY5Y cells were seeded into 6-well plates (5 × 10^5/well) and treated with retinoic acid, coumarin-chalcone derivatives, and doxycycline as previously described. On day 8, cells were collected and lysates were prepared with six freeze/thaw cycles. The supernatant was collected by centrifugation, followed by measurement of the caspase 1 activity in 50 μg aliquots of cell extract using the ICE fluorometric assay kit (BioVision, Milpitas, CA, USA). Following incubation of the mixture at 37°C for 2 h, fluorescence was measured with excitation/emission wavelengths at 400/505 nm (FLx800 fluorescence microplate reader). In addition, the collected cells were lysed by sonication. Acetylcholinesterase (AChE) activity in the supernatant was determined in 10 μg aliquots of cell extracts using the AChE activity assay kit (Sigma-Aldrich) according to the manufacture's protocol. Finally, the absorbance at 412 nm was measured using a Multiskan GO spectrophotometer (Thermo Fisher Scientific).

Aβ-GFP SH-SY5Y cells [2] = assay: Western blot in Aβ-GFP SH-SY5Y cells; assay type: cell-based, Human; conditions: LM-021 5 μM, immunoblot
Procedure: (§1) To monitor the cAMP-mediated signal transduction pathway, CRE-GFP 293 cells in 6-well plates (1 × 10^6/well) were pretreated with kinase inhibitor H-89 (LC Laboratories, Woburn, MA, USA), KN-62 (Cayman Chemical, Ann Arbor, MI, USA), U0126 (LC Laboratories), or wortmannin (LC Laboratories) (10 μM) for 4 h before forskolin or LM-021 (10 μM) addition for 5 h. GFP fluorescence/protein and total/phosphorylated PKA, CaMKII, ERK, PI3K, and CREB levels were examined. In addition, Aβ-GFP or ∆K280 tauRD-DsRed SH-SY5Y cells were treated with retinoic acid (10 μM) on day 1, followed by the addition of LM-021 (5 or 10 μM) and doxycycline (5 or 2 μg/ml) on day 2, as described. Kinase inhibitors (10 μM) were added on day 6. On day 8, the cells were collected for protein expression analysis of BDNF, BCL2 (BCL2 apoptosis regulator), and BAX (BCL2 associated X, apoptosis regulator), and total/phosphorylated PKA, CaMKII, ERK, PI3K, and CREB. Also, cells were stained with DAPI and assessed for neurite outgrowth as described above.
(§2) Total proteins from CRE-GFP 293 and Aβ-GFP, ∆K280 tauRD-DsRed SH-SY5Y cells were extracted using lysis buffer (50 mM Tris-HCl (pH 8.0), 150 mM NaCl, 1 mM EDTA (pH 8.0), 1 mM EGTA (pH 8.0), 0.1% SDS, 0.5% sodium deoxycholate, 1% Triton X-100) containing phosphatase and protease inhibitor cocktails (Sigma-Aldrich). Protein concentrations were measured using a protein assay kit (Bio-Rad, Hercules, CA, USA), and 20 μg of proteins was separated with 10% SDS-PAGE and blotted onto polyvinylidene difluoride (PVDF) membranes (Sigma-Aldrich). After blocking, the membrane blot was incubated with primary antibody against GFP (1 : 500; Santa Cruz Biotechnology, Santa Cruz, CA, USA), PKA (1 : 1000; R&D Systems, Minneapolis, MN, USA), p-PKA (T197) (1 : 1000; Cell Signaling, Danvers, MA, USA), ERK (1 : 500; Cell Signaling), p-ERK (T202/Y204) (1 : 500; Cell Signaling), CaMKII (1 : 1000; Santa Cruz Biotechnology), p-CaMKII (T286) (1 : 1000; Cell Signaling), CREB (1 : 1000; Santa Cruz Biotechnology), p-CREB (S133) (1 : 1000; Millipore, Billerica, MA, USA), BDNF (1 : 500; Santa Cruz Biotechnology), BCL2 (1 : 500; BioVision), BAX (1 : 500; BioVision), GAPDH (glyceraldehyde-3-phosphate dehydrogenase, as a loading control) (1 : 1000; MDBio, Taipei, Taiwan), or β-tubulin (1 : 1000, Sigma-Aldrich, as a loading control). The immune complexes were visualized using horseradish peroxidase-conjugated goat anti-mouse or goat anti-rabbit IgG antibody (1 : 5000, GeneTex, Irvine, CA, USA) and a chemiluminescent substrate (Millipore).

[3] = test system: ∆K280 tauRD-DsRed SH-SY5Y cells; assay: Western blot in ΔK280 tauRD-DsRed SH-SY5Y cells; assay type: cell-based, Human; conditions: LM-021 10 μM, immunoblot
Procedure: as §1, §2

Aβ-GFP SH-SY5Y cells [4] = assay: High content analysis of neurite outgrowth in Aβ-GFP cells; assay type: cell-based, Human; conditions: 5 μM
Procedure: On day 1, Aβ-GFP or ∆K280 tauRD-DsRed SH-SY5Y cells were plated into 24-well plates (6 × 10^4/well) followed by addition of retinoic acid. On day 2, cells were treated with coumarin-chalcone derivatives (5 or 10 μM) and with doxycycline (5 or 2 μg/ml) to induce the expression of Aβ-GFP or ∆K280 tauRD-DsRed. On day 8, 4% paraformaldehyde, 0.1% Triton X-100, and 3% BSA were used to fix, permeabilize, and block cells, respectively. Subsequently, the cells were stained with TUBB3 (neuronal class III β-tubulin) primary antibody (1 : 1000; Covance, Princeton, NJ, USA) at 4°C overnight. Goat anti-rabbit Alexa Fluor 555 secondary antibody (1 : 1000; Thermo Fisher Scientific) was then added, followed by a 3 h incubation at room temperature. Following staining nuclei with 4′,-6-diamidino-2-phenylindole (DAPI) (0.1 μg/ml; Sigma-Aldrich), the neurons were imaged by using the HCA system and analysed by using the Neurite Outgrowth Application Module (MetaXpress; Molecular Devices).
as §1

ΔK280 tauRD protein = biological target: T1, ΔK280 tauRD protein (Homo sapiens, UniProt P10636, DEL597-597); assay: Thioflavin T assay of ΔK280 tauRD aggregation; assay type: biochemical; conditions: ΔK280 tauRD 20 μM, compound 1–10 μM, 37°C 48 h; read-out: ΔK280 tauRD aggregation inhibition EC50 (Thioflavin T)
T1 construct: E. coli-derived ΔK280 tauRD protein; made in house; host or cells: E. coli
Procedure: The potential of Congo red and coumarin-chalcone derivatives in inhibiting tau misfolding was assessed using the E. coli-derived ΔK280 tauRD protein [21]. In brief, ΔK280 tauRD protein (20 μM) was incubated with the tested compound (1−10 μM) in buffer (150 mM NaCl, 20 mM Tris-HCl (pH 8.0)) at 37°C for 48 h to form aggregates. Thioflavin T (5 μM) was then added, and the mixture was incubated at room temperature for 25 min. The fluorescence intensity of the samples was measured, and the EC50 was computed as described.

T1 sequence (P10636 with tags, fused parts or gaps DEL597-597): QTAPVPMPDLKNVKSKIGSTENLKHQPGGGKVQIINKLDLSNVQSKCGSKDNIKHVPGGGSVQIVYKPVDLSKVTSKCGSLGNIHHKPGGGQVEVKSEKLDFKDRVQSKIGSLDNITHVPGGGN

SMILES: CN(C)c1ccc(/C=C/C(=O)c2c(O)c3ccccc3oc2=O)cc1 [LM-021, (E)-3-(3-(4-(dimethylamino)phenyl)acryloyl)-4-hydroxy-2H-chromen-2-one]
- AChE activity [1]: reduced
- BAX protein levels (Aβ-GFP SH-SY5Y cells [2]): reduced
- PKA and ERK protein levels (Aβ-GFP SH-SY5Y cells [2]): rescued the reduction in PKA and ERK, although not significantly
- p-CREB, CREB, pro-BDNF, m-BDNF, and BCL2 protein levels (Aβ-GFP SH-SY5Y cells [2]): significantly increased
- p-PKA, p-CaMKII, and p-ERK protein levels (Aβ-GFP SH-SY5Y cells [2]): significantly upregulated
- BAX protein level [3]: decreased
- Level of PKA, CaMKII, or ERK [3]: nor LM-021 treatment significantly altered
- p-CREB, CREB, pro-BDNF, m-BDNF, and BCL2 protein levels [3]: significantly upregulated
- p-PKA, p-CaMKII, and p-ERK protein levels [3]: increased
- Neurite length, processes, and branches (Aβ-GFP SH-SY5Y cells [4]): successfully ameliorated; also recorded: salvaged
- EC50 (ΔK280 tauRD protein): 10 µM
